Earlier results as cited in patent US5990277A, “Semipeptoid farnesyl protein transferase inhibitors and analogs thereof” (Yissum Research Development Company of the Herbrew …, priority 1996, dated 1999).

Experiments:
met18b-2 cells = settings: cited from earlier work
[1] = system: cells transformed by either v-raf or v-mos oncogenes; settings: cited from earlier work
[2] = target: farnesyl protein transferase (Homo sapiens, UniProt P49354+P49356); settings: literature; cited from earlier work
v-ras-transformed cells = settings: cited from earlier work
[3] = system: Ras processing in cells transformed with v-ras; settings: cited from earlier work
tumors in nude mice = settings: cited from earlier work
[4] = system: RatI cells transformed with viral H-ras; settings: cited from earlier work
[5] = system: human adenocarcinoma cell line PSN-1; settings: PSN-1 cells, altered K-ras and p53 genes; cited from earlier work
[6] = system: protein farnesyl transferase in cells; settings: cited from earlier work
[7] = system: MMTV-v-Ha-ras transgenic mice bearing palpable tumors; settings: daily administration; cited from earlier work

Structure (SMILES): COC(=O)[C@H](CCSC)NC(=O)CN1C(=O)C(N(C)C(=O)[C@@H](N)CS)N=C(c2ccccc2)c2ccccc21 (stereo partly drawn) [BZA-5B]
- inhibitory potency in cells versus parent compound BZA-2B (met18b-2 cells): much more potent inhibitor

Structure (SMILES): CC[C@H](C)[C@H](NC[C@@H](NC[C@@H](N)CS)[C@@H](C)CC)C(=O)NC1CCOC1=O (stereo partly drawn) [L-731,734, N-{2(S)-[2(R)-amino-3-mercaptopropylamino]-3(S)-methylpentyl}isoleucyl-homoserine lactone]
- efficiency of colony transformation [1]: no effect on the efficiency of colony transformation
- farnesyl protein transferase inhibitory potency in vitro [2]: less potent
- colony formation in soft agar (v-ras-transformed cells): decreasing the ability of v-ras-transformed cells to form colonies
- effect on Ras processing in cells [3]: efficiently inhibit Ras processing

Structure (SMILES): CC[C@H](C)[C@@H](CO[C@@H](Cc1ccccc1)C(=O)N[C@@H](CCS(C)(=O)=O)C(=O)OC)NC[C@@H](N)CS [L-739,749]
- growth of tumors (tumors in nude mice): suppress the growth of tumors
- farnesyl protein transferase inhibitory potency in vitro [2]: moderate inhibitor
- anchorage-independent growth [4]: suppressing the anchorage-independent growth
- anchorage-independent growth [5]: inhibit the anchorage-independent growth
- inhibitory activity in cells compared to compound L-739,750 [6]: superior inhibitory activity

Structure (SMILES): CC[C@H](C)[C@@H](CO[C@@H](Cc1ccccc1)C(=O)N[C@@H](CCS(C)(=O)=O)C(=O)OC(C)C)NC[C@@H](N)CS [L-744,832]
- tumor response [7]: caused tumor regression
- farnesyl protein transferase inhibitory potency in vitro [2]: potent and selective inhibitor
